Reference: US20130004481A1, “ANTICANCER THERAPY” (BOEHRINGER INGELHEIM INTERNATIONAL GMBH, priority 2011, published 2013)

Biological target: T1, wild type (wt)-Xenopus laevis Aurora B/INCENP complex (Xenopus laevis, UniProt Q6DE08)
T1 construct: Purified (wt)-Xenopus laevis Aurora B^60-361/INCENP^790-847 complex was stored at −80° C; GST (cleaved yes); made in house; host or cells: E. coli BL21(DE3) with pUBS520 helper plasmid
Assay: Radioactive kinase assay using wt Xenopus laevis Aurora B/INCENP complex
Format: biochemical
Conditions: 100 μM ATP
Method: Radioactive Kinase Assay Using a Wild Type (wt)-Xenopus laevis Aurora B/INCENP Complex:
The kinase assays are run in the presence of 100 μM ATP using 10 μM of a substrate peptide. pAUB-IN847 was used to transform the E. coli strain BL21(DE3) containing the pUBS520 helper plasmid. Both proteins and their mutants are expressed and purified under essentially identical conditions. Protein expression is induced with 0.3 mM IPTG at an OD600 of 0.45-0.7. Expression is then continued for about 12-16 hours at 23-25° C. with agitation. […] 20-30 ml lysis buffer are used per liter of E. coli culture. Cells are lysed by sonication, and the lysates cleared by centrifugation at 12000 rpm for 45-60 min on a JA20 rotor. The supernatants are incubated with 300 μl of GST Sepharose Fast Flow (Amersham Biosciences) per liter of bacterial culture. The resin is first washed with PBS buffer and finally equilibrated with lysis buffer. After a 4-5 hour agitation at 4° C., the beads are washed with 30 volumes of lysis buffer, and then equilibrated with 30 volumes of cleavage buffer (50 mM Tris pH 7.6, 150 mM NaCl, 1 mM DTT, 1 mM EDTA). To cleave the GST from Aurora B, 10 units of Prescission protease (Amersham Biosciences) per milligram of substrate are added and the incubation is protracted for 16 hours at 4° C. The supernatant, which contains the cleaved product, is collected and loaded onto a 6 ml Resource Q column (Amersham Biosciences) equilibrated with Ion Exchange buffer (50 mM Tris pH 7.6, 150 mM NaCl, 1 mM DTT, 1 mM EDTA). The Aurora B/INCENP complex is collected in the flow through of the column. The flow-through of the Resource Q column is concentrated and loaded onto a Superdex 200 size-exclusion chromatography (SEC) column equilibrated with SEC buffer (Tris HCl 10 mM pH 7.6, NaCl 150 mM, DTT 1 mM, EDTA 1 mM). […] The final yield is about 1-2 mg of pure complex per liter of bacteria.
Assay conditions: Enzyme activity was assayed in the presence or absence of serial inhibitor dilutions.
Data analysis: Inhibitor concentrations were transformed to logarithmic values and the raw data were normalized. These normalized values were used to calculate the IC50 values. […] Each microtiter plate contained internal controls, such as blank, maximum reaction and historical reference compound.

T1 sequence (Q6DE08 60-361): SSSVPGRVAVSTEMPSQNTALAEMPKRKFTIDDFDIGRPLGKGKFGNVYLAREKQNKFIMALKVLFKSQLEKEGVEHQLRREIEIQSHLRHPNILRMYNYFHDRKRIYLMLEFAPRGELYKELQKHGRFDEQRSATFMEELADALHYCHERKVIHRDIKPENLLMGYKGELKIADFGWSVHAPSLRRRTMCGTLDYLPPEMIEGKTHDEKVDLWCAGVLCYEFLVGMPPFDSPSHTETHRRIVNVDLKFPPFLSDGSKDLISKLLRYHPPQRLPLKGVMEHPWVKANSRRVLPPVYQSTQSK
T1 sequence (O13024 790-847 partner limits assumed): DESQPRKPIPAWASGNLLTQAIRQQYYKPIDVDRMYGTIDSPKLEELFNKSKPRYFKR

In the case of `CCNC(=O)C#Cc1ccc2c(c1)NC(=O)/C2=C(\Nc1ccc(N2CCN(C)CC2)cc1)c1ccccc1` [Compound 1, N-ethyl-3-[3-[[4-(4-methylpiperazin-1-yl)anilino]-phenylmethylidene]-2-oxo-1H-indol-6-yl]prop-2-ynamide], the IC50 is reported as 2 nM.

Work on `CN(C)Cc1ccc(N/C(=C2\C(=O)Nc3cc(C#CC(=O)NCC(F)F)ccc32)c2ccccc2)cc1` [Compound 2, N-(2,2-difluoroethyl)-3-[3-[[4-(dimethylaminomethyl)anilino]-phenylmethylidene]-2-oxo-1H-indol-6-yl]prop-2-ynamide] yielded an IC50 of 7 nM.

`O=C(C#Cc1ccc2c(c1)NC(=O)/C2=C(\Nc1ccc(CN2CCCC2)cc1)c1ccccc1)NCC(F)F` [Compound 3, N-(2,2-difluoroethyl)-3-[2-oxo-3-[phenyl-[4-(pyrrolidin-1-ylmethyl)anilino]methylidene]-1H-indol-6-yl]prop-2-ynamide] showed an IC50 of 4 nM.

In the case of `O=C(C#Cc1ccc2c(c1)NC(=O)/C2=C(\Nc1ccc(CN2CCCC2)cc1)c1ccccc1)NCCF` [Compound 4, N-(2-fluoroethyl)-3-[2-oxo-3-[phenyl-[4-(pyrrolidin-1-ylmethyl)anilino]methylidene]-1H-indol-6-yl]prop-2-ynamide], the IC50 is reported as 5 nM.

`CCNC(=O)C#Cc1ccc2c(c1)NC(=O)/C2=C(\Nc1ccc(CN(C)C)cc1)c1ccccc1` [Compound 6, 3-[3-[[4-(dimethylaminomethyl)anilino]-phenylmethylidene]-2-oxo-1H-indol-6-yl]-N-ethylprop-2-ynamide] showed an IC50 of 3 nM.
